Test results taken from US8779002B2, “Methods for treating a variety of diseases and conditions, and compounds useful therefor” (Salk Institute for Biological Studies, priority 2007, dated 2014).
Read-outs that look alike come from different tables or passages of the source.

Legend:
HT22 cells [1] = assay: HT22 oxidative glutamate toxicity (oxytosis) assay; format: cell-based, mouse; details: for EC50: Mus musculus, HT-22
Description: FIG. 1D illustrates the results of an oxidative stress assay. HT22 cells were treated with 5 mM glutamate and different concentrations of two versions of curcumin derivatives. Cell viability was measured 24 hr later by the MTT assay (J. B. Davis and P. Maher, Protein kinase C activation inhibits glutamate-induced cytotoxicity in a neuronal cell line. Brain Res. 652 (1994) 169-173). Legend for FIG. 1A, FIG. 1B and FIG. 1D: x-x, Cmpd CNB-001, o-o, Cmpd J147.
Similar toxicity assays as described above are also conducted with invention compounds using HT22 cells in an assay for oxidative stress. After exposure with 1 mM, 2 mM, 2.5 mM, or 5 mM glutamate, cell viability is determined with the MTT assay.
HT22 hippocampal neurons are treated with 5 mM glutamate and increasing concentrations of invention compounds. Cell viability is measured 24 hr later by the MTT assay (Davis and Maher, Brain Res. 652:169-173 (1994)).

MC-65 cells = assay: MC65 intracellular amyloid toxicity assay; format: cell-based; details: for EC50: MC65; for Protection against intracellular protein aggregation and toxicity: MC-65 cells, tetracycline removal, MTT 5 days later
Description: FIG. 4A illustrates the viability of MC-65 cells upon exposure to the indicated concentrations of compounds, and the degree to which synthesis of the C-terminal fragment of APP is induced by the removal of tetracycline. Cell death was determined 5 days later by the MTT assay and confirmed visually. The data are plotted as percent viable, relative to controls of drug plus un-induced cells.

Amyloid = assay: Extracellular amyloid toxicity (cell culture); format: cell-based
PC12 cells = assay: Glucose starvation assay; format: cell-based; set-up: key: + = positive result or enzyme activation; details: Cell Culture
Description: FIG. 1C illustrates the results of a glucose starvation assay. PC12 cells were starved for glucose plus or minus 20 nM J147; cell viability was then determined 48 hr later using the MTT assay (T. Soucek, R. Cumming, R. Dargusch, P. Maher and D. Schubert, Neuron 39 (2003) 43-56).

Cortical Nerve = assay: In vitro ischemia, cortical nerve; format: cell-based; set-up: key: + = positive result or enzyme activation
Retinal Ganglion Cells = assay: In vitro ischemia, retinal ganglion cells; format: cell-based; set-up: key: + = positive result or enzyme activation
HT22 cells [2] = assay: Chemical ischemia (iodoacetic acid) in HT22 mouse hippocampal cells; format: cell-based; set-up: key to In Vitro Ischemia, Mouse hippocampal cells: + = positive result or enzyme activation; details: for Cell death caused by treatment of HT22 cells with 20 μM IAA: 20 μM iodoacetic acid for 2 hr, MTT after 24 hr
Description: FIG. 2 illustrates the ability of invention compounds CNB-001 and J147 to protect nerve cells from chemical ischemia. HT22 cells were treated with 20 μM iodoacetic acid for 2 hr alone or in the presence of varying concentrations of CNB-001 or J147. % survival was confirmed by microscopy and measured after 24 hr by the MTT assay.
Most cell culture models of ischemia utilize primary cortical cultures that are exposed to some form of oxygen and glucose deprivation. While these assays may come closer to mimicking the in vivo conditions than assays employing neuronal cell lines, they have a number of problems that make them difficult to use for the routine screening of potential neuroprotective compounds. The most serious problem is that the condition needed to kill a fixed percentage of cells are highly variable from experiment to experiment, making it very difficult to get accurate values for neuroprotective activity. In order to circumvent this and other problems, a mouse nerve cell line was used in combination with chemical ischemia as a screen for potential neuroprotective drugs for ischemia. To induce chemical ischemia, iodoacetic acid (IAA), a well known, irreversible inhibitor of the glycolytic enzyme glyceraldehyde 3-phosphate dehydrogenase (G3PDH) (see B. S. Winkler et al., Modulation of the Pasteur effect in retinal cells: implications for understanding compensatory metabolic mechanisms, in Exp Eye Res 76 (2003) 715-723) was used in combination with the HT22 mouse hippocampal cell line. IAA has been used in a number of other studies to induce ischemia in nerve cells. The changes following IAA treatment of neural cells are very similar to changes which have been seen in animal models of CNS trauma and ischemia. These include alterations in membrane potential, breakdown of phospholipids, loss of ATP, and an increase in reactive oxygen species. A 2 hr treatment of the HT22 cells with 20 μM IAA induces over 90% cell death 20 hr later. […]

Memory = assay: Memory, animal models (Table 2); set-up: key: + = positive result or enzyme activation; details: in vivo
[3] = system: Schaffer collateral CA1 pyramidal cell synapses in rat hippocampal slices; assay: LTP induction in hippocampal slices; set-up: key to LTP: + = positive result or enzyme activation
Description: Hippocampal slices were exposed to J147 during the time indicated by the black bar. The field excitatory postsynaptic potential (fEPSP) slope is expressed as the percentage of the value immediately before the addition of J147.
The effect of J147 is dose-dependent. The hippocampal slices were untreated or exposed to J147 for the time indicated by the black bar, and weak tetanic stimulation was applied at time 0. The fEPSP slope is expressed as the percentage of the value immediately before the application of weak tetanic stimulation. FIG. 3B illustrates the time course of changes in the fEPSP slope.
To compare the data among the groups, the averages of the fEPSP slopes 30-60 min after tetanic stimulation were calculated as an index of LTP magnitude; the results are shown in FIG. 3C. All the data are the mean±SEM […] vs none.

CaM Kinase II alpha = assay: CaM Kinase II activation; format: cell-based; set-up: key: + = positive result or enzyme activation
Description: Invention compounds have the ability to activate CaM Kinase II alpha, a key enzyme involved in memory formation.
To evaluate the ability of a test compound to activate CaM Kinase II alpha, HT22 hippocampal neurons or one week old cortical neurons from embryonic 18 day rats can be prepared according to published procedures (e.g., Soucek et al., Neuron 39:43-56 (2003) and Li et al., Neuron 19:453-463 (1997)). Thus, for example, suitable cells can be treated with 1-2 μM of an exemplary invention compound for a suitable amount of time (e.g., 15, 30, 60 or 120 minutes).
Cells are then lysed and applied to a suitable gel for separation (e.g., P81 phosphocellulose paper, polyacrylamide gel containing SDS, and the like). CaMKII activity can then be assayed using an antibody that recognizes phosphothreonine from both the alpha and beta chains of CaM Kinase II. Invention compounds promote an increase in CaMKII activity of 10% or greater.

[4] = Toxicology: animal weight or overall health; format: in vivo
[5] = Cell Culture (Table 2), read-out: Oxidative Glutamate Toxicity
[6] = Cell Culture, read-out: Amyloid Toxicity, Intracellular

Structure (SMILES)	EC50 (HT22 cells [1]; [5]) [nM]	EC50 (MC-65 cells; [6]) [nM]	Protection against intracellular protein aggregation and toxicity (MC-65 cells)	EC50 (Amyloid) [nM]	Glucose Starvation (PC12 cells)	In Vitro Ischemia, Cortical Nerve (Cortical Nerve)	In Vitro Ischemia, Retinal Ganglion Cells (Retinal Ganglion Cells)	Cell death caused by treatment of HT22 cells with 20 μM IAA (HT22 cells [2])	Memory (Memory)	Memory, Animal (Memory)	LTP [3]	CaMKinase II (CaM Kinase II alpha)	further results
COc1cc(/C=C/c2cc(/C=C/c3ccc(O)c(OC)c3)n(-c3ccccc3)n2)ccc1O [CNB-001]	500	200	neuroprotective	500	+	+	+	can be prevented	+	+	+	+	HT22 cells that live (HT22 cells [1]; glutamate, in the presence of Cmpd CNB-001 at 1 μM): over 90%; In Vitro Ischemia, Mouse hippocampal cells (HT22 cells [2]): +; Toxicology-no apparent effect on animal weight or overall health ([4]; several mo. (mice)): 500 ppm food
COc1cccc(/C=N/N(C(=O)C(F)(F)F)c2ccc(C)cc2C)c1 [Compound J147]	5	3	neuroprotective	10	+	+	+	can be prevented	+	+	+	+	EC50 (HT22 cells [1]; HT22 cells, following 5 mM glutamate exposure, MTT, read-out: EC50): ~5 nM; EC50 (HT22 cells [1]; Oxidative glutamate toxicity (oxytosis), read-out: HT-22 EC50): 6 nM; EC50 (MC-65 cells; Intracellular amyloid toxicity, read-out: MC65 EC50): 10 nM; Induction of LTP ([3]; after a weak tetanic stimulation (15 pulses at 100 Hz), fEPSP slope): facilitate the induction of LTP; Basal synaptic transmission ([3]; fEPSP slope, J147 1 μM): does not affect basal synaptic transmission; Toxicology-no apparent effect on animal weight or overall health ([4]; gavage 10 d (mice)): 300 mg/kg
